{"source": "patent US20100015126A1", "about": "“Methods of Binding of Cross-Beta Structures By Chaperones” (priority 2006, published 2010)", "system": "HUVECs", "test": "FACS: binding of misfolded proteins and BiP to HUVECs", "type": "cell-based, human", "method": "For these experiments HUVECs were isolated by trypsinization. After trypsinization cells were collected in RPMI 1640, containing P/S and 10% FCS and centrifuged. After centrifugation cells were resuspended in RPMI medium without FCS at a concentration of 1.250.000 cells/250 μl. Individual 4-ml tubes (polypropylene, Greiner), containing 250 μl cell suspensions were made. To each tube 75 μl of a sample, containing either, • a. buffer (PBS) only, or • b. 25 μl PBS+50 μl BiP (1.16 mg/ml), or • c. 50 μl buffer with 25 μl oxLDL (1 mg/ml), or • d. 74 μl buffer with 1 μl BSA-AGE (25 mg/ml), or • e. 24 μl PBS+1 μl BSA-AGE (25 mg/ml)+50 μl BiP (1.16 mg/ml), or • f. 25 μl oxLDL (1 mg/ml)+50 μl BiP (1.16 mg/ml), • g. 1.6 μl dIgIV-65 (20 mg/ml)+73.4 μl PBS • h. […]\nwas added. Subsequently, the cells were incubated with the sample for approximately 30 minutes at 4° C. Next, cells were pelleted by centrifugation and the supernatant was discarded. Cells were washed subsequently with FACS buffer (PBS/0.5% BSA/0.05% m/v NaN3) at 4° C. and resuspended in FACS-buffer at approximately 1*10^5 cells/100 μl for subsequent analysis. Cell death was determined by adding 3 μl 7-aminoactinomycin D (7AAD) solution (prepared according to standard procedures). Binding of sample BSA-AGE (see elsewhere in this application for preparation details) was determined with anti-AGE monoclonal antibody 4B5 (10 μg/ml) and, after washing, with goat anti-mouse PE secondary antibodies (Jackson Immunoresearch, West Grove, USA). Binding of BSA-AGE was also assessed using the intrinsic fluorescence of BSA-AGE in the PE channel. Binding of oxidized LDL (oxLDL, oxidized for 56% following incubation with FeSO4; specific enhancement of Thioflavin T fluorescence) was determined with rabbit serum with anti-ApoB100 polyclonal antibodies at a concentration of 160 μg/ml and, after washing the cells, with FITC-labelled goat anti-rabbit antibodies (1:200, Jackson). Binding of dIgIV-65 was assessed by using anti-Human IgG antibody. BiP binding was determined using the earlier mentioned anti-FLAG antibody (M2, Sigma-Aldrich)."}
{"substance": "BSA-AGE", "values": [{"measurement": "Binding of misfolded protein to ECs (MFI ratio)", "setting": "absence of BiP, 30 minutes at 4° C.", "result": 13.8}, {"measurement": "Binding of misfolded protein to ECs (MFI ratio)", "setting": "presence of BiP", "result": 10.2}]}
